Experimental data as given in patent US20030195168A1, “Therapeutic agents - III” (priority 2000, published 2003).

Experiments:
[1] = test system: HIV-strain pNL4-3; test: HIV-1 replication in acutely infected PBMC (CA-p24 ELISA); assay type: cell-based; details: 2.8 μM
Procedure: Experiments were conducted to assess the effect of the compounds of the instant invention on HIV-1 replication in acutely infected T cells. Peripheral blood mononuclear cells (PBMC) were obtained from non-HIV-1, non-HIV-2, non-Hepatitis B/C infected donors, stimulated with phytohemagglutinin-M and grown in culture media supplemented with 10 U/mL interleukin-2. The activated PBMC were infected with […] (Low Titre) and 100 ng (High Titre) of CA-p24 equivalents of the HIV-strain pNL4-3. Cells were infected for two hr after which, the virus was removed and the cells were washed with culture media. Equivalent numbers of cells were seeded into 24 well plates and compounds were added to the cultured cells that included: TPA at 8 riM and 80 nM, Ingenol at 280 nM, PEP003 at 500 nM, 50 nM and 5 nM, or PEP004 at dilutions of 1×10^4 and 1×10^5 from the stock (final concentrations). In addition, uninfected activated PBMC were grown in the presence of TPA (80 nM), Ingenol (280 nM), PEP003 (500 nM) and PEP004 (1×10^4 dilution). Other cultures were neither infected nor treated with any compound, or infected but not treated with any compound. Supernatant was removed from each culture at day 0, 3, 7, and 10. The amount of HIV-1 CA-p24 was determined using a commercially available ELISA assay. Three independent experiments were performed.

[2] = molecular target: T1, PKCβ (Homo sapiens, UniProt P05771); test: EGFP-PKC isoform translocation in HeLa cells; assay type: cell-based; details: for number of PKCβ transfected cells with Golgi-like fluorescence: one hour treatment; for translocation of PKCβ to the plasma membrane: one hour, TPA 100 ng/mL, bryostatin-1 5 pg/mL, PEP003 2.25 μg/mL (5 μM), PEP005 670 μg/mL (1.5 μM)
T1 construct: host or cells: HeLa cells
T1 sequence (P05771 whole entry, species assumed, canonical isoform): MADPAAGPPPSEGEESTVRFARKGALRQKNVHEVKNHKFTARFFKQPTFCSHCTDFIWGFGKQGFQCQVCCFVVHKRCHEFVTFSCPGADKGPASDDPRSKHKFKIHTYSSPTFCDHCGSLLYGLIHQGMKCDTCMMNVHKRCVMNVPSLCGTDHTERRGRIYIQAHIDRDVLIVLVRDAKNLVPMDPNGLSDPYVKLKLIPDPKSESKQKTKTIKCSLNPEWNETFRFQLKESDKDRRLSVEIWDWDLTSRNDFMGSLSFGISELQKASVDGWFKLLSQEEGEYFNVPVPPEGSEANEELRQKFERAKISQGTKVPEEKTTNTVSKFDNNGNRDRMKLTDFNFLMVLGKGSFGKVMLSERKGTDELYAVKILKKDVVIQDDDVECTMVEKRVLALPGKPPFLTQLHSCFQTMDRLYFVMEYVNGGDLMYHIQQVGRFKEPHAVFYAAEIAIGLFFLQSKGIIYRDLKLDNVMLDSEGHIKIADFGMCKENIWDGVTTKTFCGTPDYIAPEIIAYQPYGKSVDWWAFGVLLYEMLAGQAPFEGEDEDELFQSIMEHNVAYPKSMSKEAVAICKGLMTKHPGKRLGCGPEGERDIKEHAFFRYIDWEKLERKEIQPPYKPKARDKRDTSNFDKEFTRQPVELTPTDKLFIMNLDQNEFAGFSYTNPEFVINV
Procedure: (§1) Five EGFP-PKC isoforms (Clontech) were available for this experiment, enabling the screening of the three predominant PKC families (i.e. classical, novel and atypical PKCs). The members of the various PKC families are α, β, and γ (classical), θ (novel) and ζ (atypical).
(§2) HeLa cells were plated out in a 24-well plate containing coverslips and transfected with PKC isoforms fused to EGFP, using a commercially available effectine-transfection kit (QIAGEN, Pty. Ltd.). Cells were exposed to the transfection reagents for 16-24 hr. Subsequently, transfected cells were treated for one hour with TPA (100 ng/mL), bryostatin-1 (5 pg/mL), PEP003 (2.25 μg/mL; 5 μM) or PEP005 ([…]) 1.5 μM). Following treatment, cells were fixed on coverslips and mounted on glass slides. The slides were subsequently examined visually by fluorescence microscopy, photographed, and over 150 cells were counted/treatment/PKC isoform. Counted cells were classified according to the localisation of the PKC-EGFP fluorescence as either cytoplasmic or plasma membrane using ImagePro™ 4.1 (FIG. 5). […] The number of these cells was also counted. Results are presented as an average and standard deviation of percentages of cells (Table 1).

[3] = molecular target: T2, PKCζ (Homo sapiens, UniProt Q05513); test: EGFP-PKC isoform translocation in HeLa cells; assay type: cell-based; details: one hour, TPA 100 ng/mL, bryostatin-1 5 pg/mL, PEP003 2.25 μg/mL (5 μM), PEP005 670 μg/mL (1.5 μM)
T2 construct: host or cells: HeLa cells
T2 sequence (Q05513 1-592): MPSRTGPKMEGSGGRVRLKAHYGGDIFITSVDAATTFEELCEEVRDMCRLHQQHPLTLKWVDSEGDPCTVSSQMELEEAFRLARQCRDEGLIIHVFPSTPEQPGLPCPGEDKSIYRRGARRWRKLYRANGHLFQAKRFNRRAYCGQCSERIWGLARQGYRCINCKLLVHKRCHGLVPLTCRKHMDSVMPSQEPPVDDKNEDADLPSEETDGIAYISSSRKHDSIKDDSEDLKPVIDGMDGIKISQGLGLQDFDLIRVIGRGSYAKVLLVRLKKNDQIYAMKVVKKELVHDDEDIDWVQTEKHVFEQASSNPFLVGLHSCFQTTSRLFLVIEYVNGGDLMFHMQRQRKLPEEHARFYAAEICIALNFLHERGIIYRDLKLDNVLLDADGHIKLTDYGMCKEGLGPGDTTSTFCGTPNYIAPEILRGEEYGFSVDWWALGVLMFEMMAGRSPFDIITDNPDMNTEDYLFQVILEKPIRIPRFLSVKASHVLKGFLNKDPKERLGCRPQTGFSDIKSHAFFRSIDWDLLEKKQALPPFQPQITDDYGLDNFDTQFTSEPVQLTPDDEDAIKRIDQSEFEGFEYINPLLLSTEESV
Procedure: as §1, §2

[4] = molecular target: T3, PKCγ (Homo sapiens, UniProt P05129); test: EGFP-PKC isoform translocation in HeLa cells; assay type: cell-based
T3 construct: host or cells: HeLa cells
Procedure: as §1, §2

[5] = molecular target: T4, PKCθ (Homo sapiens, UniProt Q04759); test: EGFP-PKC isoform translocation in HeLa cells; assay type: cell-based; details: one hour, TPA 100 ng/mL, bryostatin-1 5 pg/mL, PEP003 2.25 μg/mL (5 μM), PEP005 670 μg/mL (1.5 μM)
T4 construct: host or cells: HeLa cells
T4 sequence (Q04759 whole entry, canonical isoform): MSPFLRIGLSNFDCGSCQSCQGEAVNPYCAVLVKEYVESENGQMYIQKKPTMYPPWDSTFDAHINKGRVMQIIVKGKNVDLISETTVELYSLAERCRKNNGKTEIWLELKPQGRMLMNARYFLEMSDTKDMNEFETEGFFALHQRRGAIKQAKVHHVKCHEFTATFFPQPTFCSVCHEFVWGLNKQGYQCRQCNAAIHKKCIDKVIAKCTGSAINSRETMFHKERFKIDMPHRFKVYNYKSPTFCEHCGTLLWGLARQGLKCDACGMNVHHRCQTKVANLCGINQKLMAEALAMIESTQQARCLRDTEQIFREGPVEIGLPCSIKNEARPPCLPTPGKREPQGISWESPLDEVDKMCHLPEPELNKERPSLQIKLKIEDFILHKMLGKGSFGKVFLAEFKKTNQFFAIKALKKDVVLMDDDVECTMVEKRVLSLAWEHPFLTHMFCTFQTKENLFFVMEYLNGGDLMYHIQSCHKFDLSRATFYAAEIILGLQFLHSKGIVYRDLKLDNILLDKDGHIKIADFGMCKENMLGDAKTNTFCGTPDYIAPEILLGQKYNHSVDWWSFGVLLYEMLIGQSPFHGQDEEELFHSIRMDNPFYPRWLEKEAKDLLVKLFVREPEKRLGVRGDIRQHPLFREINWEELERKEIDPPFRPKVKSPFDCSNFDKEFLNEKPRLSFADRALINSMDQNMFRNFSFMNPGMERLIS
Procedure: as §1, §2

[6] = test system: peripheral blood mononuclear cells (PBMCs); test: Phagocytosis with fluorescent beads; assay type: cell-based; details: whole heparinized blood, 30 min at 37° C.
Procedure: Phagocytosis by peripheral blood mononuclear cells (PBMCs) was assayed (Steinkamp et al., 1982) using 1 μm Fluoresbrite™ yellow-green fluorescent latex spheres (Polysciences, Inc., Warrington, Pa.). A sample of whole, heparinized blood was treated with drug and 5×10E7 fluorescent latex beads in 10 μL of PBS added per mL of suspension. Cells were incubated and maintained in suspension for 30 min by means of a shaker platform at 37° C. The stirnulated and non-stimulated samples were then lysed to isolate PBMCs. The PBMCs were run on the flow cytometer measuring FITC (excitation at 488 nm, emission at 525±20 nm), gated for fluorescence (phagocytosed spheres) and light scatter (cell size).

[7] = test system: adenovirus 5; test: Adenovirus 5 replication in human melanoma cells; assay type: cell-based; details: 2 days
Text: Human melanoma cells were infected with ten-fold dilutions of adenovirus 5 in culture, treated with dilutions of PEP005, PEP006, PEP008 and PEP010 and adenovirus replication determined 2 days later by immunhistochemical detection of virus-replicating cells.

[8] = molecular target: T5, PKCα (Homo sapiens, UniProt P17252); assay type: cell-based; details: HeLa
T5 construct: host or cells: HeLa cells
Procedure: as §1
as §2, with “counted.” for “counted. Results are presented as an average and standard deviation of percentages of cells (Table 1).”

[9] = test system: neonatal foreskin fibroblasts; test: Leukocyte killing of normal cells, [3H]-thymidine labelling; assay type: cell-based, human; details: 100:1 effector:target, 48 hr
Procedure: (§3) Leukocytes obtained by lysis of human peripheral blood were added to 5000 MM96L human melanoma cells or 7000 neonatal foreskin fibroblasts per microtitre well at effector: target ratios of 1000, 100 and 10:1. Ing9 (60 ng/mL) was added and after 48 hr incubation the cultures were washed and labelled with [3H]-thymidine for 2 hr. […] Untreated leukocytes had no effect on cell survival.
as §3, with “The target cells had been treated with 60 ng/mL PEP008 for 20 hr beforehand,” for “Ing9 (60 ng/mL) was added”, “washed and the medium replaced before the leukocytes were added. After” for “after”, “incubation with the leukocytes” for “incubation”

[10] = test system: MM96L human melanoma cells; test: Leukocyte killing of tumor cells, [3H]-thymidine labelling; assay type: cell-based; details: 100:1 effector:target, 48 hr
Procedure: as §3
as §3, with “The target cells had been treated with 60 ng/mL PEP008 for 20 hr beforehand,” for “Ing9 (60 ng/mL) was added”, “washed and the medium replaced before the leukocytes were added. After” for “after”, “incubation with the leukocytes” for “incubation”

[11] = test system: Peripheral blood mononuclear cells (PBMC); test: Respiratory burst (H2O2) in PBMC, DCFH-DA flow cytometry; assay type: cell-based
Procedure: Experiments were also carried out using 2′,7′-dichlorofluorescein diacetate (DCFH-DA) to measure the production of H2O2.(J P Robinson, Oxidative burst methods, in Handbook of Flow Cytometry Methods, Wiley-Liss Inc, pp147-149, 1993). H2O2 oxidizes the non-fluorescent probe (DCFH-DA) to a fluorescent probe that can then be detected by a flow cytometer. Peripheral blood mononuclear cells (PBMC) were extracted from a donor blood sample by lysis of heparinized blood and used in a suspension of 1×10^6/mL of phosphate buffer, pH 7.3. The cells were then incubated with DCFH-DA (1 μL/mL of 20 mM stock) for 15 minutes to allow it to be taken up and trapped by hydrolysis with cellular esterases. The cells were then stimulated by test compounds for 15 min at 37° C. Controls included in the experiment were unloaded control (cells with no DCFH-DA) and loaded control (cells with DCFH-DA, but no stimulation). These were used to monitor the non-specific oxidation of unstimulated cells. The cells were then analyzed on the flow cytometer (excitation at 488 nm, emission at 525±20 nm), gating each sample for individual cell populations-granulocytes, monocytes and lymphocytes (Table 3).

[12] = test system: phorbol ester binding site of PKC; test: [3H]-phorbol dibutyrate competition assay on rat brain homogenate
Procedure: A competition assay was performed to determine whether the diterpene esters of the instant invention bind to the phorbol ester binding site of PKC. […] This binding was not blocked by co-incubation with bisindolylmaleimide.

[13] = test system: MM96L cells; test: Effect of Euphorbiaceae saps on MM96L cells (cytotoxicity, bipolar dendritic phenotype); assay type: cell-based; details: 1 μg/mL or 10 μg/mL
Procedure: Sap was collected from Synadenium grantii, Synadenium compactum, Mondenium lugardae, Mondenium guentheri, Endadenium gossweileni, and E. peplus and serially diluted ten-fold up to 10^−7into sterile 1.5 mL Eppendorf™ tubes using growth medium. […] After 3 days, cells were examined for cytotoxicity or differentiation to a bipolar dendritic phenotype.

[14] = test system: rat brain PKC; test: PepTag non-radioactive PKC kinase activity assay; details: FIG. 1; TPA 100-0.01 ng/ml; ether extract final dilution 1 in 5; aqueous layer and crude sap diluted 1/25
Procedure: The kinase activity of rat brain PKC (Promega) was determined using the Peptag™ Non-Radioactive Protein Kinase Kit (Promega). Using agarose gel electrophoresis the technique visualises the opposing electrostatic charge of a fluorescently labeled peptide ([sequence]) compared to the phosphorylated version of the same peptide.
The reaction mixture was separated by gel electrophoresis, showing migration of the unreacted substrate (a) to the anode (top), and the product (b), which is more negatively charged because of phosphorylation by PKC, moving towards the cathode (bottom).

[15] = target cells pre-treated with 60 ng/mL for 20 hr, washed

## CC1=C[C@]23C(=O)[C@@H](C=C(CO)[C@@H](O)[C@]2(O)[C@H]1O)[C@H]1[C@@H](C[C@H]3C)C1(C)C [Ingenol]
[1]
  reduction of HIV-1 replication rate: approximately 35%

## C/C=C(/C)C(=O)O[C@H]1C(C)=C[C@]23C(=O)[C@@H](C=C(CO)[C@@H](O)[C@]12O)[C@H]1[C@@H](C[C@H]3C)C1(C)C [PEP005, 20-hydroxy-ingenol-3-angelate]
[2]
  number of PKCβ transfected cells with Golgi-like fluorescence: decreases the number of cells with PKCβ concentrated in the Golgi
  translocation of PKCβ to the plasma membrane: translocated from the cytoplasm to the plasma membrane
[3]
  translocation of PKCζ: fail to induce translocation
[4]; one hour treatment
  number of PKCγ transfected cells displaying Golgi-like fluorescence: increase in the number of cells displaying Golgi-like fluorescence
[4]; one hour, TPA 100 ng/mL, bryostatin-1 5 pg/mL, PEP003 2.25 μg/mL (5 μM), PEP005 670 μg/mL (1.5 μM)
  translocation of PKCγ to the plasma membrane: translocated from the cytoplasm to the plasma membrane
[5]
  translocation of PKCθ: does not induce any change
[6]
  stimulation of phagocytosis of fluorescent latex beads: stimulate phagocytosis in PBMCs
[7]; 67 ng/mL
  increase of adenovirus replication (number of stained cells): 344%
[8]; one hour treatment
  number of PKCα transfected cells displaying Golgi-like fluorescence: increase in the number of cells displaying Golgi-like fluorescence
[8]; one hour, TPA 100 ng/mL, bryostatin-1 5 pg/mL, PEP003 2.25 μg/mL (5 μM)
  translocation of PKCα to the plasma membrane: translocated from the cytoplasm to the plasma membrane

## C/C=C(/C)C(=O)O[C@H]1C(C)=C[C@]23C(=O)[C@@H](C=C(CO)[C@@H](O)[C@]12O)[C@H]1[C@@H](C[C@H]3C)C1(C)C [PEP006, Ingenol-3-angelate]
[6]
  stimulation of phagocytosis of fluorescent latex beads: stimulate phagocytosis in PBMCs
[7]; 295 ng/mL
  increase of adenovirus replication (number of stained cells): 256%

## C/C=C(/C)C(=O)O[C@H]1C(C)=C[C@]23C(=O)[C@@H](C=C(COC(C)=O)[C@@H](O)[C@]12O)[C@H]1[C@@H](C[C@H]3C)C1(C)C [PEP008, 20-O-acetyl-ingenol-3-angelate]
[6]
  stimulation of phagocytosis of fluorescent latex beads: stimulate phagocytosis in PBMCs
[7]; 226 ng/mL
  increase of adenovirus replication (number of stained cells): 248%
[9]; 60 ng/mL added with leukocytes
  survival of normal fibroblasts: 100%
[9]; [15]
  survival of normal fibroblasts: 100%
[10]; 60 ng/mL added with leukocytes
  survival of melanoma cells: 9%
[10]; [15]
  survival of melanoma cells: 12%

## CCC/C=C/C=C/C(=O)O[C@H]1/C(=C/C(=O)OC)C[C@H]2C[C@H]([C@@H](C)O)OC(=O)C[C@H](O)C[C@@H]3C[C@H](OC(C)=O)C(C)(C)[C@](O)(C[C@@H]4C/C(=C/C(=O)OC)C[C@H](/C=C/C(C)(C)[C@]1(O)O2)O4)O3 [bryostatin-1]
[2]
  number of PKCβ transfected cells with Golgi-like fluorescence: decreases the number of cells with PKCβ concentrated in the Golgi
  translocation of PKCβ to the plasma membrane: but not with bryostatin-1
[3]
  translocation of PKCζ: fail to induce translocation
[5]
  translocation of PKCθ: translocated
[11]; 15 min at 37° C., granulocytes, monocytes, lymphocytes
  induction of a respiratory burst (H2O2, DCFH-DA): All compounds except Bryostatin induced a respiratory burst

## bisindolylmaleimide
[12]
  binding to the phorbol ester binding site of PKC: does not
[13]
  effect of PKC inhibitor on sap-induced differentiation of MM96L cells: this differentiation is inhibited
[11]; 10 μg/mL or 1 μg/mL, added at the same time as test compounds
  block of the respiratory burst by PKC inhibitor: blocked the respiratory burst

## phosphatidyl serine
[14]
  activation of PKC (phosphorylation of fluorescent PepTag substrate): strong activation
